Bounds are passed on as bounds.

One experiment relates to WI-38-tert cells. Kind of experiment: Senescence / quiescence in WI-38-tert fibroblasts. The class given is cell-based, human. As to conditions: compound alone. The method, then: (§1) FIG. 4. […] HT-p21-a cells were treated with IPTG and infected with Ad-p53. After 3 days, cells were photographed (original magnification ×200): Upper panel. Under blue light to visualize cells expressing p53 (green cells). Lower panel. Under visible light to visualize all cells. Red arrows indicate cells lacking p53 expression. All of these cells show large, flat cell morphology. Green arrows indicate cells expressing p53. b-d. […] After 1 day, cells were lysed and immunoblot was performed as described in Methods for Example 1. c. […] Cells were then stained for beta-Gal activity and microphotographed. Scale bar—50 μm.d. […] Cells were then trypsinized and counted. […] Results are shown as percent of control.
FIG. 11. Effects of Ad-p21 and Ad-p53 on senescent morphology in WI-38-tert fibroblasts. WI-38-tert cells were infected with either p21-expressing adenovirus (Ad-p21) or p53-expressing adenovirus (Ad-p53) or both. After 3 days, cells were stained for beta-Gal.
Cell lines and reagents. HT-p21-9 and HT-p21-a cells are derivatives of HT1080 human fibrosarcoma cells, where p21 expression can be turned on or off using isopropyl-thio-galactosidase (IPTG) (7, 16, 28, 29, 36). […] HT-p16 cells are derivatives of HT1080 cells in which p16 expression can be turned on or off using IPTG (16, 36). WI-38-Tert, WI-38 are fibroblasts immortalized by telomerase. HT-p21-GSE56 cells: p53 inhibiting peptide GSE56 (18) was introduced into HT1080 p21-9 cells via a retroviral vector LXSE (37). Cells were grown in high glucose DMEM with 10% FC2 serum. WI-38-tert cells were grown in low glucose DMEM with 10% FCS. Rapamycin was obtained from LC Laboratories (Woburn, Mass.). IPTG (final concentration of 50 μg/ml) and FC2 were obtained from Sigma-Aldrich (St. Louis, Mo.).
Beta-galactosidase staining Beta-gal staining was performed using Senescence-galactosidase staining kit (Cell Signaling Technology).

Experiment [1] concerns mTOR pathway. Kind of experiment: Immunoblot for p53, p-S6, p-S6K in WI-38-tert fibroblasts. It is filed as cell-based, human. As for the experimental part: as §1
FIG. 12. […] Immunoblot for p53, p-S6, p-S6K, S6 and actin was performed as described in Methods for Example 1.
Immunoblot analysis. Proteins were separated on 4-15% gradient Tris-HCl gels (Bio-Rad). The following antibodies were used: mouse anti-actin from Santa Cruz Biotechnology, rabbit anti-phospho-S6 (Ser240/244) and (Ser235/236), mouse anti-S6, mouse anti-phospho-p70 S6 kinase (Thr389), mouse anti-p21 and anti-p53, rabbit anti-phospho-4E-BP1 (Thr37/46) from Cell Signaling; mouse anti-4E-BP1 from Invitrogen, mouse anti-p53 (Ab-6) from Calbiochem.

A further experiment deals with HT-p21-9 cells. The following applies: previously reported (Demidenko 2009); cited from earlier work.
For experiment [2], the system named is mTOR pathway. As to conditions: previously reported (Demidenko 2009); cited from earlier work.
The test system of experiment [3] is HT-p21 cells. Kind of experiment: Cellular hypertrophy (protein and GFP per cell) in IPTG-treated HT-p21 cells, rapamycin dose response. The following applies: this particular cell line. The class given is cell-based, human. The method, then:
(§2) FIG. 18. Correlation between S6 phosphorylation, hypertrophy and loss of proliferative potential in senescent cells. HT-p21 cells were plated in 6 well plates and treated with IPTG plus the increasing concentrations of rapamycin (from 0.16 to 500 nM). At concentration 0, cells were treated with IPTG alone. A. Cellular hypertrophy: protein and GFP. After 3 days, soluble protein and GFP were measured per well. [Note: in non-proliferating cells, protein/well is a measure of protein/cells]. Results are shown as percent of IPTG alone (0) without rapamycin. B. After 3 days, cells were lysed and immunobloted for p-S6, S6 and p21.
Cell lines and reagents. In HT-p21 cells, p21 expression can be turned on or off using […] (IPTG). HT-p21 cells were cultured in DMEM medium supplemented with FC2 serum. Rapamycin was obtained from LC Laboratories and dissolved in DMSO as 2 mM solution and was used at final concentration of 500 nM, unless otherwise indicated. IPTG and FC2 were obtained from Sigma-Aldrich (St. Louis, Mo.). IPTG was dissolved in water as 50 mg/ml stock solution and used in cell culture at final concentration of 50 μg/ml.

The test system of experiment [4] is S6 phosphorylation, a marker of mTOR activity. Kind of experiment: Immunoblot for p-S6, S6 and p21 in IPTG-treated HT-p21 cells, rapamycin. The class given is cell-based, human. The following applies: IPTG plus rapamycin, 3 days. The method, then: as §2
FIG. 24. Induction of p21 by IPTG. HT-p21 cells were plated in 6 well plates and treated with IPTG with or without rapamycin as indicated. The next day, cells were lysed and immunoblot for p-S6, S and p21 was performed as described in Methods.
Immunoblot analysis. Cells were lysed and soluble proteins were harvested as previously described. […] Cells were counted on a Coulter Z1 cell counter (Hialeah, Fla.). […] Plates were photographed and the number of colonies were determined as previously described. […] Thereafter, cells were washed in PBS, and the number of -galactosidase activity-positive cells (blue staining) were counted under bright field illumination.
(Immunoblotting shows a protein as a band on a membrane.)

Experiment [5] relates to HT-p21 cells. Kind of experiment: Preservation of proliferative competence (PC), cell counting after wash. It is filed as cell-based, human. The method, then:
C. PC: preservation of proliferative competence. After 3 days, cells were washed to remove IPTG and RAPA. Cells were incubated for additional 5 days in the fresh medium and then were counted. Results are shown as percent of IPTG alone (0) without rapamycin.
FIG. 20. The dynamics of cell numbers. 500 HT-p21 cells were plated in 12 well plates. On the next day, either IPTG alone (I) or IPTG plus rapamycin (I+R) were added. After 3 days, plates were washed (I/w and I+R/w) or left unwashed. Cells were counted at days 1, 3, 6 and 9. Upper panel: linear-scale. Lower panel: log-scale. Open and closed squares: IPTG and IPTG plus Rapa, respectively. Open and closed circles: IPTG washed (I/w) and IPTG plus Rapa washed (I+R/w), respectively.
Immunoblot analysis. Cells were lysed and soluble proteins were harvested as previously described. Immunoblot analysis was performed using mouse monoclonal anti-p21, mouse monoclonal anti-phospho-S6 Ser240/244 (Cell Signaling, MA, USA), rabbit polyclonal anti-S6 (Cell Signaling, MA, USA) and mouse monoclonal anti-tubulin Ab as previously described. Cell counting. Cells were counted on a Coulter Z1 cell counter (Hialeah, Fla.). […] Plates were photographed and the number of colonies were determined as previously described. […] Thereafter, cells were washed in PBS, and the number of -galactosidase activity-positive cells (blue staining) were counted under bright field illumination.

Experiment [6] concerns HT-p21 cells. Kind of experiment: Colony formation assay after IPTG with or without rapamycin. The class given is cell-based, human. The following applies: IPTG plus rapamycin 3 days, washed; versus IPTG alone.

On to `COc1cccc2c1C(=O)c1c(O)c3c(c(O)c1C2=O)C[C@@](O)(C(=O)CO)C[C@@H]3O[C@H]1C[C@H](N)[C@H](O)[C@H](C)O1` [doxorubicin], for which, in the experiment with WI-38-tert cells, the “type of arrest in WI-38-tert cells” value was “caused senescence in WI-38-tert cells”. Moreover, the “inhibition of mTOR” value in the experiment on mTOR pathway [1] is listed as “does not inhibit mTOR”.
For the compound `N#CC(=C(/N)Sc1ccccc1N)/C(C#N)=C(\N)Sc1ccccc1N` [U0126], in the experiment with HT-p21-9 cells, the cellular senescence entry is on record as “suppress cellular senescence”. Moreover, the “mTOR pathway in HT-p21-9 cells, measured by phosphorylation of S6” value in the experiment on mTOR pathway [2] was “deactivate the mTOR pathway”.
Consider `CO[C@H]1C[C@@H]2CC[C@@H](C)[C@@](O)(O2)C(=O)C(=O)N2CCCC[C@H]2C(=O)O[C@H]([C@H](C)C[C@@H]2CC[C@@H](O)[C@H](OC)C2)CC(=O)[C@H](C)/C=C(\C)[C@@H](O)[C@@H](OC)C(=O)[C@H](C)C[C@H](C)/C=C/C=C/C=C/1C` [rapamycin], for which, in the experiment on HT-p21 cells [3], the “concentration required for anti-hypertrophic effects” value was in the range of 100 to 500 nM. Further, in experiment [4], the “concentrations that inhibited S6 phosphorylation” value was at least 20 nM. Besides, in the experiment on HT-p21 cells [5] (I/w and I+R/w conditions), the “doubling time of the competent cells” value was 20 to 24 h. For the same compound, the “PC (preservation of competence)” value with HT-p21 cells [5] (IPTG plus rapamycin 3 days, washed, 5 more days, percent of IPTG alone) was found to be 800%. Also, the “increase in number of colonies (number of competent cells)” value in the experiment with HT-p21 cells [6] is given as around 10 fold.

The record behind these values is patent US20120283269A1, “Method and Compositions for Suppression of Aging” (HEALTH RESEARCH INC., priority 2009, published 2012).
